Measured values taken from patent publication US10112935B2, “Indazolyl thiadiazolamines and related compounds for inhibition of Rho-associated protein kinase and the treatment of disease” (Lycera Corporation, priority 2015, dated 2018).

Assays:
[1] = target: GST-tagged human ROCK1 catalytic domain 1-477 (Homo sapiens (Human), UniProt Q13464); assay: Inhibition of Rho-associated protein kinase isoform 1 (LANCE Ultra ULight-CREBtide FRET kinase assay); format: biochemical; conditions: 30 μM was the highest concentration analyzed
GST-tagged human ROCK1 catalytic domain 1-477, sequence (Q13464 1-477): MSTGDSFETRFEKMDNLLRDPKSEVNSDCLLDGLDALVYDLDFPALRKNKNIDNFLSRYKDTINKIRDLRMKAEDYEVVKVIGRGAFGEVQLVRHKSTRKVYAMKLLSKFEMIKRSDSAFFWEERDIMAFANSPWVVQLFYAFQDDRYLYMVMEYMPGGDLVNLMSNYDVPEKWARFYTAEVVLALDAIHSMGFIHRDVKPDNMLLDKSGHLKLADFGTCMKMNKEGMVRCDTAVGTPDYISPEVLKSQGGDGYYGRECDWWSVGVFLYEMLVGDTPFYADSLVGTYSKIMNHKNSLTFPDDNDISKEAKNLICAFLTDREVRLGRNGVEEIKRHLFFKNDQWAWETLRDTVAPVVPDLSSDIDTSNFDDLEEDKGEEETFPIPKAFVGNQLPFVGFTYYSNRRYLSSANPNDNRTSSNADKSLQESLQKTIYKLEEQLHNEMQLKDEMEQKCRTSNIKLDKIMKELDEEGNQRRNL
Experimental: (§1) Exemplary compounds were tested for ability to inhibit Rho-associated protein kinase isoform 1 (ROCK1) and Rho-associated protein kinase isoform 2 (ROCK2). Assay procedures and results are described below.
(§2) Protein constructs were purified from a baculovirus expression system. The peptide substrate was fluorescent LANCE® Ultra ULight-CREBtide: […] (PerkinElmer, # TRF0107-D). […] After a 90 minute incubation at room temperature on a shaker table, the kinase reaction was stopped by addition of 10 mM EDTA, and phosphorylation of the substrate was detected by adding 1 nM LANCE® Ultra Europium-anti-phospho-CREB (ser133) antibody (PerkinElmer, # TRF0200-D) and incubating for 60 minutes on a shaker at room temperature. The flurorescence resonance energy transfer (FRET) signals were read and analyzed on an Envision™ 2103 Multilabel Reader (Perkin Elmer).

[2] = target: GST-tagged human ROCK2 catalytic domain 1-553 (Homo sapiens (Human), UniProt O75116); assay: Inhibition of Rho-associated protein kinase isoform 2 (LANCE Ultra ULight-CREBtide FRET kinase assay); format: biochemical; conditions: for IC50: 30 μM was the highest concentration analyzed; for Selectivity for ROCK2 over ROCK1 (IC50 ROCK1 / IC50 ROCK2): selectivity ROCK2 vs ROCK1
GST-tagged human ROCK2 catalytic domain 1-553, sequence (O75116 1-553): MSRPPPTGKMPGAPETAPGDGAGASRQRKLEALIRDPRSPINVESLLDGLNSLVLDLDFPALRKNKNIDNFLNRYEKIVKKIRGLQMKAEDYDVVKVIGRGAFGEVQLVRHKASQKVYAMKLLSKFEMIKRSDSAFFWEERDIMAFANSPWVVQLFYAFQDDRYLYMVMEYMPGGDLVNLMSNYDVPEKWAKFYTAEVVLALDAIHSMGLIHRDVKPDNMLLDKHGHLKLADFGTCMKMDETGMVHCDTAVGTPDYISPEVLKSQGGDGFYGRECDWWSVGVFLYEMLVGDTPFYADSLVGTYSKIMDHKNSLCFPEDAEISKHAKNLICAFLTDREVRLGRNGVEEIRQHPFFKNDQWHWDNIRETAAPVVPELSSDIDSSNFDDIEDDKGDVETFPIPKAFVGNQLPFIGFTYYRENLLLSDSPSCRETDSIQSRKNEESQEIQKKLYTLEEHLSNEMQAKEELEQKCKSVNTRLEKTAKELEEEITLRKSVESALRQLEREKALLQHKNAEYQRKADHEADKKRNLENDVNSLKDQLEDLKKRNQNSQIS
Experimental: as §1, §2

Row | SMILES | IC50 [1] | IC50 [2] | Selectivity for ROCK2 over ROCK1 (IC50 ROCK1 / IC50 ROCK2) [2]
1 | Cn1cc(CC(=O)Nc2cc(-c3nnc(Nc4ccc5[nH]ncc5c4Cl)s3)ccn2)cn1 [Example 36, N-(4-(5-((4-Chloro-1H-indazol-5-yl)amino)-1,3,4-thiadiazol-2-yl)pyridin-2-yl)-2-(1-methyl-1H-pyrazol-4-yl)acetamide] | < 1 µM | < 1 µM | >5
2 | Clc1c(Nc2nnc(-c3cccc(-c4nccn4C4COC4)c3)s2)ccc2[nH]ncc12 [Example 37, N-(4-Chloro-1H-indazol-5-yl)-5-(3-(1-(oxetan-3-yl)-1H-imidazol-2-yl)phenyl)-1,3,4-thiadiazol-2-amine] | > 30 µM | < 1 µM | >100
3 | CN1CCN(c2cc(-c3nnc(Nc4ccc5[nH]ncc5c4Cl)s3)ccn2)C1=O [Example 38, 1-(4-(5-((4-Chloro-1H-indazol-5-yl)amino)-1,3,4-thiadiazol-2-yl)pyridin-2-yl)-3-methylimidazolidin-2-one] | < 1 µM | < 1 µM | >5
4 | c1csc(-c2cncc(-c3nnc(Nc4ccc5[nH]ncc5c4)s3)c2)c1 [Example 39D] | 1 to 15 µM | < 1 µM | >5
5 | Cc1coc(-c2cc(-c3nnc(Nc4ccc5[nH]ncc5c4Cl)s3)ccn2)n1 [Example 40, N-(4-Chloro-1H-indazol-5-yl)-5-(2-(4-methyloxazol-2-yl)pyridin-4-yl)-1,3,4-thiadiazol-2-amine] | < 1 µM | < 1 µM | >5
6 | O=C(O)C(F)(F)F.OCc1cc(-c2ncco2)cc(-c2nnc(Nc3ccc4[nH]ncc4c3Cl)s2)c1 [Example 41C] | < 1 µM | < 1 µM | >5
7 | Clc1c(Nc2nnc(-c3cccc(-c4nnn[nH]4)c3)s2)ccc2[nH]ncc12 [Example 41D] | < 1 µM | < 1 µM | >50
8 | CN1CCN(c2cccc(-c3nnc(Nc4ccc5[nH]ncc5c4Cl)s3)c2)C(=O)C1 [Example 42, 1-(3-(5-((4-Chloro-1H-indazol-5-yl)amino)-1,3,4-thiadiazol-2-yl)phenyl)-4-methylpiperazin-2-one] | 1 to 15 µM | 1 to 15 µM | >5
9 | CN1C(=O)Cc2c(-c3nnc(Nc4ccc5[nH]ncc5c4Cl)s3)cccc21.O=C(O)C(F)(F)F [Example 43, 4-(5-((4-Chloro-1H-indazol-5-yl)amino)-1,3,4-thiadiazol-2-yl)-1-methylindolin-2-one 2,2,2-trifluoroacetic Acid Solvate] | 1 to 15 µM | < 1 µM | >5
10 | COCCn1ccnc1-c1cccc(-c2nnc(Nc3ccc4[nH]ncc4c3Cl)s2)c1.O=C(O)C(F)(F)F [Example 44, N-(4-Chloro-1H-indazol-5-yl)-5-(3-(1-(2-methoxyethyl)-1H-imidazol-2-yl)phenyl)-1,3,4-thiadiazol-2-amine 2,2,2-trifluoroacetic Acid Solvate] | < 1 µM | < 1 µM | >5
11 | O=C(O)C(F)(F)F.OCCn1ccnc1-c1cccc(-c2nnc(Nc3ccc4[nH]ncc4c3Cl)s2)c1 [Example 45A, 2-(2-(3-(5-((4-Chloro-1H-indazol-5-yl)amino)-1,3,4-thiadiazol-2-yl)phenyl)-1H-imidazol-1-yl)ethan-1-ol 2,2,2-trifluoroacetic Acid Solvate] | 1 to 15 µM | < 1 µM | >75
12 | CC(=O)Nc1cc(CSC(C)=O)cc(-c2nnc(Nc3ccc4[nH]ncc4c3Cl)s2)c1 [Example 47, (S)-(3-Acetamido-5-(5-((4-chloro-1H-indazol-5-yl)amino)-1,3,4-thiadiazol-2-yl)benzyl)ethanethioate] | > 30 µM | < 1 µM | >100

The next lines start with the values.

Row | IC50 [1] | IC50 [2] | Selectivity for ROCK2 over ROCK1 (IC50 ROCK1 / IC50 ROCK2) [2] | SMILES
13 | < 1 µM | < 1 µM | >5 | CC(C)n1ccnc1-c1cccc(-c2nnc(Nc3ccc4[nH]ncc4c3Cl)s2)c1.O=C(O)C(F)(F)F [Example 46A]
14 | > 30 µM | < 1 µM | >100 | O=C(O)C(F)(F)F.Oc1cccc(-c2cccc(-c3nnc(Nc4ccc5[nH]ncc5c4Cl)s3)c2)n1 [Example 46B]
15 | < 1 µM | < 1 µM | >5 | Cc1coc(-c2cccc(-c3nnc(Nc4ccc5[nH]ncc5c4Cl)s3)c2)n1 [Example 46C]
16 | > 30 µM | < 1 µM | >100 | Cc1coc(-c2cc(F)cc(-c3nnc(Nc4ccc5[nH]ncc5c4Cl)s3)c2)n1 [Example 46D]
17 | > 30 µM | < 1 µM | >100 | Cn1ccnc1-c1cccc(-c2nnc(Nc3ccc4[nH]ncc4c3Cl)s2)c1.O=C(O)C(F)(F)F [Example 46E]
18 | 1 to 15 µM | < 1 µM | >5 | CC1(C)COC(c2cccc(-c3nnc(Nc4ccc5[nH]ncc5c4Cl)s3)c2)=N1 [Example 46F]
19 | > 30 µM | < 1 µM | >100 | COc1cccc(-c2cccc(-c3nnc(Nc4ccc5[nH]ncc5c4Cl)s3)c2)n1 [Example 46H]
20 | > 30 µM | < 1 µM | >100 | Clc1c(Nc2nnc(-c3cccc(-c4nccs4)c3)s2)ccc2[nH]ncc12 [Example 46I]
21 | > 30 µM | < 1 µM | >100 | Fc1cc(-c2ncco2)cc(-c2nnc(Nc3ccc4[nH]ncc4c3Cl)s2)c1 [Example 46J]
22 | > 30 µM | < 1 µM | >100 | NC(=O)c1cc(-c2ncco2)cc(-c2nnc(Nc3ccc4[nH]ncc4c3Cl)s2)c1 [Example 46L]
23 | > 30 µM | < 1 µM | >100 | CC(=O)Nc1cc(-c2ncco2)cc(-c2nnc(Nc3ccc4[nH]ncc4c3Cl)s2)c1.O=C(O)C(F)(F)F [Example 46M]
24 | < 1 µM | < 1 µM | >5 | O=C(O)C(F)(F)F.O=C(O)c1cc(-c2ncco2)cc(-c2nnc(Nc3ccc4[nH]ncc4c3Cl)s2)c1 [Example 46N]
25 | > 30 µM | < 1 µM | >100 | Clc1c(Nc2nnc(-c3cccc(-c4ncco4)c3)s2)ccc2[nH]ncc12 [Example 46O]
26 | > 30 µM | < 1 µM | >100 | Clc1c(Nc2nnc(-c3cncc(-c4ncco4)c3)s2)ccc2[nH]ncc12 [Example 46P]
27 | < 1 µM | < 1 µM | >5 | Cn1cc(C(=O)Nc2cc(C(=O)O)cc(-c3nnc(Nc4ccc5[nH]ncc5c4Cl)s3)c2)cn1 [Example 48AC]
28 | < 1 µM | < 1 µM | – | CC(=O)Nc1cc(C(=O)O)cc(-c2nnc(Nc3ccc4[nH]ncc4c3)s2)c1 [Example 48AE]
29 | 1 to 15 µM | < 1 µM | >5 | CCN(CC)Cc1cc(NC(C)=O)cc(-c2nnc(Nc3ccc4[nH]ncc4c3Cl)s2)c1.O=C(O)C(F)(F)F [Example 48A]
30 | 1 to 15 µM | < 1 µM | >50 | CC(=O)Nc1cc(CN2CCN(C)CC2)cc(-c2nnc(Nc3ccc4[nH]ncc4c3Cl)s2)c1.O=C(O)C(F)(F)F [Example 48B]
31 | 1 to 15 µM | < 1 µM | >5 | CC(=O)Nc1cc(CN(C)C)cc(-c2nnc(Nc3ccc4[nH]ncc4c3Cl)s2)c1.O=C(O)C(F)(F)F [Example 48C]
32 | 1 to 15 µM | < 1 µM | >5 | CC(=O)Nc1cc(CN2CCOCC2)cc(-c2nnc(Nc3ccc4[nH]ncc4c3Cl)s2)c1.O=C(O)C(F)(F)F [Example 48D]
33 | 15 to 30 µM | 1 to 15 µM | <5 | CC(=O)Nc1ccc(S(C)(=O)=O)c(-c2nnc(Nc3ccc4[nH]ncc4c3Cl)s2)c1 [Example 48E]
34 | < 1 µM | < 1 µM | >5 | CSc1ccc(NC(C)=O)cc1-c1nnc(Nc2ccc3[nH]ncc3c2Cl)s1 [Example 48F]
35 | < 1 µM | < 1 µM | >50 | CC(=O)Nc1cc(CO)cc(-c2nnc(Nc3ccc4[nH]ncc4c3Cl)s2)c1 [Example 48H]
36 | < 1 µM | < 1 µM | >5 | CC(=O)Nc1ccc(C)c(-c2nnc(Nc3ccc4[nH]ncc4c3Cl)s2)c1.O=C(O)C(F)(F)F [Example 48I]
37 | < 1 µM | < 1 µM | >5 | COc1ccc(NC(C)=O)cc1-c1nnc(Nc2ccc3[nH]ncc3c2Cl)s1 [Example 48J]
38 | > 30 µM | < 1 µM | >100 | CC(=O)Nc1cc(-c2nnc(Nc3ccc4[nH]ncc4c3Cl)s2)cc(C(F)(F)F)c1 [Example 48K]
39 | 1 to 15 µM | < 1 µM | >5 | CC(=O)Nc1cc(-c2nnc(Nc3ccc4[nH]ncc4c3Cl)s2)ccc1CN(C)C [Example 48L]
